According to patent publication US11472791B2 (Incyte Corporation, priority 2019, dated 2022):

Biological target: CDK2/Cyclin E1 (Homo sapiens (Human), UniProt P24941)
Test: CDK2/Cyclin E1 HTRF enzyme activity assay
Assay type: biochemical
Details: 1 mM ATP
Experimental: Assays are conducted in white 384-well polystyrene plates in a final reaction volume of 8 μL. […] HTRF signals are read after 1 hour at room temperature on a PHERAstar FS plate reader (BMG Labtech). Data is analyzed with IDBS XLFit and GraphPad Prism 5.0 software using a three or four parameter dose response curve to determine IC50 for each compound.

IC50 [µM]	Compound
< 0.05	Cc1cc(CN2CCN(C)CC2)ccc1-n1cc(-c2nc(N[C@H]3CCN(S(=O)(=O)c4cn(C)cn4)C[C@H]3F)ncc2C(F)(F)F)cn1 [Example 102, N-((3R,4S)-3-Fluoro-1-((1-methyl-1H-imidazol-4-yl)sulfonyl)piperidin-4-yl)-4-(1-(2-methyl-4-((4-methylpiperazin-1-yl)methyl)phenyl)-1H-pyrazol-4-yl)-5-(trifluoromethyl)pyrimidin-2-amine]
< 0.05	Cc1cc(CN2CCN(C)CC2)ccc1-n1cc(-c2nc(N[C@H]3CCN(S(=O)(=O)c4ccn(C)n4)C[C@H]3F)ncc2C(F)(F)F)cn1 [Example 103, N-((3R,4S)-3-Fluoro-1-((1-methyl-1H-pyrazol-3-yl)sulfonyl)piperidin-4-yl)-4-(1-(2-methyl-4-((4-methylpiperazin-1-yl)methyl)phenyl)-1H-pyrazol-4-yl)-5-(trifluoromethyl)pyrimidin-2-amine]
< 0.05	CC(=O)N1CCN(Cc2ccc(-n3cc(-c4nc(N[C@H]5CCN(S(=O)(=O)c6cn(C)cn6)C[C@H]5F)ncc4C(F)(F)F)cn3)c(C)c2)CC1 [Example 104, 1-(4-(4-(4-(2-(((3R,4S)-3-Fluoro-1-((1-methyl-1H-imidazol-4-yl)sulfonyl)piperidin-4-yl)amino)-5-(trifluoromethyl)pyrimidin-4-yl)-1H-pyrazol-1-yl)-3-methylbenzyl)piperazin-1-yl)ethan-1-one]
< 0.05	CC(=O)N1CCN(Cc2ccc(-n3cc(-c4nc(NC5CCN(S(=O)(=O)c6cn(C)cn6)CC5)ncc4C(F)(F)F)cn3)c(C)c2)CC1 [Example 105, 1-(4-(3-Methyl-4-(4-(2-((1-((1-methyl-1H-imidazol-4-yl)sulfonyl)piperidin-4-yl)amino)-5-(trifluoromethyl)pyrimidin-4-yl)-1H-pyrazol-1-yl)benzyl)piperazin-1-yl)ethan-1-one]
< 0.05	Cc1cc(CN(C)C)ccc1-n1cc(-c2nc(NC3CCN(S(=O)(=O)c4cn(C)cn4)CC3)ncc2C(F)(F)F)cn1 [Example 106, 4-(1-(4-((Dimethylamino)methyl)-2-methylphenyl)-1H-pyrazol-4-yl)-N-(1-((1-methyl-1H-imidazol-4-yl)sulfonyl)piperidin-4-yl)-5-(trifluoromethyl)pyrimidin-2-amine]
< 0.05	Cc1cc(CN2CCOCC2)ccc1-n1cc(-c2nc(NC3CCN(S(=O)(=O)c4cn(C)cn4)CC3)ncc2C(F)(F)F)cn1 [Example 107, N-(1-((1-Methyl-1H-imidazol-4-yl)sulfonyl)piperidin-4-yl)-4-(1-(2-methyl-4-(morpholinomethyl)phenyl)-1H-pyrazol-4-yl)-5-(trifluoromethyl)pyrimidin-2-amine]
< 0.05	CN1CCN(Cc2ccc(-n3cc(-c4nc(NC5CCN(S(=O)(=O)c6cn(C)cn6)CC5)ncc4Cl)cn3)c(Cl)c2)CC1 [Example 108, 5-Chloro-4-(1-(2-chloro-4-((4-methylpiperazin-1-yl)methyl)phenyl)-1H-pyrazol-4-yl)-N-(1-((1-methyl-1H-imidazol-4-yl)sulfonyl)piperidin-4-yl)pyrimidin-2-amine]
< 0.05	Cc1cc(CN2CCN(C)CC2)ccc1-n1cc(-c2nc(NC3CCN(S(=O)(=O)c4cn(C)cn4)CC3)ncc2Cl)cn1 [Example 109, 5-Chloro-N-(1-((1-methyl-1H-imidazol-4-yl)sulfonyl)piperidin-4-yl)-4-(1-(2-methyl-4-((4-methylpiperazin-1-yl)methyl)phenyl)-1H-pyrazol-4-yl)pyrimidin-2-amine]
< 0.05	Cc1cc(CN2CCN(C)CC2)ccc1-n1cc(-c2nc(NC3CCN(S(=O)(=O)c4ccn(C)n4)CC3)ncc2Cl)cn1 [Example 110, 5-Chloro-N-(1-((1-methyl-1H-pyrazol-3-yl)sulfonyl)piperidin-4-yl)-4-(1-(2-methyl-4-((4-methylpiperazin-1-yl)methyl)phenyl)-1H-pyrazol-4-yl)pyrimidin-2-amine]
